Experimental data: patent US9725416B2, “Ethynyl derivatives” (Hoffmann-La Roche Inc., priority 2014, dated 2017)

Key:
mice [1] = conditions: reported by Addex 2010; cited from earlier work
mice [2] = conditions: reported by Addex 2010; cited from earlier work; remark: listed apart in the source
rats = conditions: cited from earlier work
[3] = system: 6-OHDA rodent model of PD; conditions: cited from earlier work
mice treated with MPTP = conditions: cited from earlier work
human mGlu4 receptor = molecular target: T1, human mGlu4 receptor (Homo sapiens, UniProt Q14833); experiment: Ca2+ mobilization in vitro assay on recombinant human mGlu4 expressed in HEK293 cells (mGlu4 PAM); format: cell-based; conditions: for Emax: HEK293, maximal response in % of the maximal stimulatory effect obtained with saturating concentrations of L-AP4, read-out: Eff. (%); for EC50: HEK-293 cells, Ca2+ mobilization, L-AP4 added at EC20
T1 construct: expressed in transfected cells; host or cells: HEK-293 (monoclonal, stably transfected)
Method in brief: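 HEK293 line stably expressing human mGlu4 (low expression, low constitutive activity), Fluo-4AM loaded; compounds (11 half-log dilutions) preincubated 10-30 min at 37 °C, then L-AP4 added at its EC20, determined daily. EC50 from peak fluorescence minus basal, normalized to saturating L-AP4 maximum, four-parameter fit.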

T1 sequence (Q14833 33-912): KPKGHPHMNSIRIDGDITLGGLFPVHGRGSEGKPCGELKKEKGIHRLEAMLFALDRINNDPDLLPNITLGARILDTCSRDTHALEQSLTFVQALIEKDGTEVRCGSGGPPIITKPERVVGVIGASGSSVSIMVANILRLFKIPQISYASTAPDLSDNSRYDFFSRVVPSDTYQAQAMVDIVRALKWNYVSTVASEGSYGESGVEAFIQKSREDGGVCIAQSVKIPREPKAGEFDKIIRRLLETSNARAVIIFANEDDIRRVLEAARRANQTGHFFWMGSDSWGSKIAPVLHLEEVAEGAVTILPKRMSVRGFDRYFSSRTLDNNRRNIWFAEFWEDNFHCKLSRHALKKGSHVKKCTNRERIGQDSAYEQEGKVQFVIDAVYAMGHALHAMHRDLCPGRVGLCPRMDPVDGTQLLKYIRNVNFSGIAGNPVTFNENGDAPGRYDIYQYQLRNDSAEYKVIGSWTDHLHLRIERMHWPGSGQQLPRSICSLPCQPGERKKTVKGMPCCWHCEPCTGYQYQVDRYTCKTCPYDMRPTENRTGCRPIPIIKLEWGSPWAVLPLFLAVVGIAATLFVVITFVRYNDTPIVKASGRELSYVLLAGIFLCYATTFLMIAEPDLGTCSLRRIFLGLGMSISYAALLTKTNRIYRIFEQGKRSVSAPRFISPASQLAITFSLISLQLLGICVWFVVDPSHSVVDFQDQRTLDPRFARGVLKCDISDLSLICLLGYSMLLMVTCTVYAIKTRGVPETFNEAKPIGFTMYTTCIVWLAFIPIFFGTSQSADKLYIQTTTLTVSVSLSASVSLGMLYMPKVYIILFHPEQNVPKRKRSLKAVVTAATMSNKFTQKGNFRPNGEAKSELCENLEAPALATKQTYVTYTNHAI

Row | SMILES | Emax (human mGlu4 receptor) [%] | EC50 (human mGlu4 receptor) [nM] | further results
1 | Cc1ccnc(Nc2nc(-c3cn[nH]c3)c(C)s2)n1 [ADX88178] |  |  | activity in marble burying test (mice [1]): active; activity in EPM (mice [2]): active; profile in rat EPM test (rats; rat, after oral dosing): anxiolytic-like profile; activity in EPM (rats; rats, reported by Addex 2010): active
2 | N[C@@H](CCP(=O)(O)O)C(=O)O [L-AP4, (2S)-2-amino-4-phosphonobutanoic acid] |  |  | neuroprotection [3]: neuroprotective effects
3 | O=C(Nc1ccccc1)C12CC1/C(=N\O)c1ccccc1O2 (single isomer, unassigned; (-)) [(−)-PHCCC] |  |  | nigrostriatal degeneration (mice treated with MPTP): reduced nigrostriatal degeneration
4 | CN1C(=O)N(c2c(F)cc(C#Cc3cccnc3)cc2F)C(=O)CC1(C)c1ccccc1 (stereo in doubt) [Example 20, (6R)-3-[2,6-Difluoro-4-[2-(3-pyridyl)ethynyl]phenyl]-1,6-dimethyl-6-phenyl-hexahydropyrimidine-2,4-dione] | 175 | 239 | 
5 | CN1C(=O)N(c2c(F)cc(C#Cc3ccccc3)cc2F)C(=O)C[C@@]1(C)c1ccn(C)c(=O)c1 [Example 75, (6S)-3-[2,6-Difluoro-4-(2-phenylethynyl)phenyl]-1,6-dimethyl-6-(1-methyl-2-oxo-4-pyridyl)hexahydropyrimidine-2,4-dione] | 108 | 55 | 
6 | CN1C(=O)N(c2ncc(C#Cc3ccccc3)cc2C(F)(F)F)C(=O)CC1(C)c1ccccc1 (racemic) [Example 46, (6RS)-1,6-Dimethyl-6-phenyl-3-[5-(2-phenylethynyl)-3-(trifluoromethyl)-2-pyridyl]hexahydropyrimidine-2,4-dione] | 105 | 116 | 
7 | CC(C)C1(C)CC(=O)N(c2c(F)cc(C#Cc3ccccc3)cc2F)C(=O)N1C (racemic) [Example 26, (6RS)-3-[2,6-Difluoro-4-(2-phenylethynyl)phenyl]-6-isopropyl-1,6-dimethyl-hexahydropyrimidine-2,4-dione] | 107 | 64 | 
8 | CN1C(=O)N(c2ccc(C#Cc3ccccc3)cc2Cl)C(=O)CC12CCCCC2 [Example 3, 3-[2-Chloro-4-(2-phenylethynyl)phenyl]-1-methyl-1,3-diazaspiro[5.5]undecane-2,4-dione] | 105 | 245 | 
9 | CC(C)N1C(=O)N(c2c(F)cc(C#Cc3ccccc3)cc2F)C(=O)C[C@@]1(C)c1cccnc1 [Example 70, (6S)-3-[2,6-Difluoro-4-(2-phenylethynyl)phenyl]-1-isopropyl-6-methyl-6-(3-pyridyl)hexahydropyrimidine-2,4-dione] | 106 | 73 | 
10 | CN1C(=O)N(c2c(F)cc(C#Cc3cccnc3)cc2F)C(=O)CC1(C)c1ccccc1Cl (racemic) [Example 40, (6RS)-6-(2-Chlorophenyl)-3-[2,6-difluoro-4-[2-(3-pyridyl)ethynyl]phenyl]-1,6-dimethyl-hexahydropyrimidine-2,4-dione] | 109 | 394 | 
11 | CN1C(=O)N(c2c(F)cc(C#Cc3ccccc3)cc2F)C(=O)CC12CCCOC2 (racemic) [Example 17, (6RS)-3-[2,6-Difluoro-4-(2-phenylethynyl)phenyl]-1-methyl-8-oxa-1,3-diazaspiro[5.5]undecane-2,4-dione] | 129 | 183 | 
12 | CCN1C(=O)N(c2c(F)cc(C#Cc3ccccc3)cc2F)C(=O)C[C@@]1(C)c1ccnc(C)c1 [Example 77, (6S)-3-[2,6-Difluoro-4-(2-phenylethynyl)phenyl]-1-ethyl-6-methyl-6-(2-methyl-4-pyridyl)hexahydropyrimidine-2,4-dione] | 111 | 68 | 
13 | CN1C(=O)N(c2c(F)cc(C#Cc3ccccc3)cc2F)C(=O)C[C@@]1(C)c1ccc(=O)n(C)c1 [Example 66, (6S)-3-[2,6-Difluoro-4-(2-phenylethynyl)phenyl]-1,6-dimethyl-6-(1-methyl-6-oxo-3-pyridyl)hexahydropyrimidine-2,4-dione] | 114 | 43 | 
14 | CC1C(=O)N(c2c(F)cc(C#Cc3ccccc3)cc2F)C(=O)N(C)C1(C)C (racemic) [Example 7, (5RS)-3-[2,6-Difluoro-4-(2-phenylethynyl)phenyl]-1,5,6,6-tetramethyl-hexahydropyrimidine-2,4-dione] | 148 | 157 | 
15 | COc1cc([C@]2(C)CC(=O)N(c3c(F)cc(C#Cc4ccccc4)cc3F)C(=O)N2C)ccn1 [Example 73, (6S)-3-[2,6-Difluoro-4-(2-phenylethynyl)phenyl]-6-(2-methoxy-4-pyridyl)-1,6-dimethyl-hexahydropyrimidine-2,4-dione] | 120 | 47 | 
16 | CN1C(=O)N(c2c(F)cc(C#Cc3cccnc3)cc2F)C(=O)CC1(C)c1ccccc1 (stereo in doubt) [Example 19, (6S)-3-[2,6-Difluoro-4-[2-(3-pyridyl)ethynyl]phenyl]-1,6-dimethyl-6-phenyl-hexahydropyrimidine-2,4-dione] | 178 | 50 | 
17 | CN1C(=O)N(c2ncc(C#Cc3ccccc3)cc2Cl)C(=O)CC1(C)c1ccccc1 (racemic) [Example 32, (6RS)-3-[3-Chloro-5-(2-phenylethynyl)-2-pyridyl]-1,6-dimethyl-6-phenyl-hexahydropyrimidine-2,4-dione] | 103 | 155 | 
